Measurements: patent US11084821B2 (MISSION THERAPEUTICS LIMITED, priority 2016, dated 2021)
pIC50: −log10 of the molar value.

Target: USP30 (Homo sapiens (Human), UniProt Q70CQ3)
Assay: USP30 Biochemical IC50 Assay
Conditions: fluorescence polarisation, TAMRA labelled peptide linked to ubiquitin; enzyme and compound incubated 30 min; read after 2 h at room temperature; read-out: IC50 range
Protocol: USP30 Biochemical IC50 Assay
Dilution plates were prepared at 21 times the final concentration (2100 μM for a final concentration of 100 μM) in 50% DMSO in a 96-well polypropylene V-bottom plate (Greiner #651201). A typical 8-point dilution series would be 100, 30, 10, 3, 1, 0.3, 0.1, 0.03 μM final. Reactions were performed in duplicate in black 384 well plates (small volume, Greiner 784076) in a final reaction volume of 21 μl. Either 1 μl of 50% DMSO or diluted compound was added to the plate. USP30 was diluted in reaction buffer (40 mM Tris, pH 7.5, 0.005% Tween 20, 0.5 mg/ml BSA, 5 mM beta-mercaptoethanol) to the equivalent of 0.05 μl/well and 10 μl of diluted USP30 was added to the compound. Enzyme and compound were incubated for 30 min at room temp. Reactions were initiated by the addition of 50 nM of TAMRA labelled peptide linked to ubiquitin via an iso-peptide bond as fluorescence polarisation substrate. Reactions were read immediately after addition of substrate and following a 2 h incubation at room temperature. Readings were performed on a Pherastar Plus (BMG Labtech). Excitation 540 nm; Emission 590 nm.

Chain of USP30 (Q70CQ3 57-517): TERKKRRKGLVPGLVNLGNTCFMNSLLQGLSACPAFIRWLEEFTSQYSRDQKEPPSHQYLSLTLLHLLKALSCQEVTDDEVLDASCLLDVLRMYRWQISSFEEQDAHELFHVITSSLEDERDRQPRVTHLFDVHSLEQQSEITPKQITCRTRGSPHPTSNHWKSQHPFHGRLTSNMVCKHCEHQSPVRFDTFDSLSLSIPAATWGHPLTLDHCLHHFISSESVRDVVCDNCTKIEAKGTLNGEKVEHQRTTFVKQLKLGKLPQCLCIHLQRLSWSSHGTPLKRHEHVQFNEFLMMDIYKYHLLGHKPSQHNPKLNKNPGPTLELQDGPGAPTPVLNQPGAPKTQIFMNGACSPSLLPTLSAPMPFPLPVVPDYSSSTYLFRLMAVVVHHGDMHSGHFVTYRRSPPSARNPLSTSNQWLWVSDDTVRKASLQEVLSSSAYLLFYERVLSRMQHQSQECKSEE

SMILES	pIC50
N#CN1C[C@@H]2OCCN(c3ncc(-c4ccccc4)s3)[C@H]2C1 (relative stereo) [Example 10, trans-4-(5-Phenylthiazol-2-yl)hexahydropyrrolo[3,4-b][1,4]oxazine-6(2H)-carbonitrile]	6.00 to 7.00
CN(c1ccc(-c2ccccc2)cn1)C1CCN(C#N)C1 (centres unmarked) [Example 14, 3-(Methyl(5-phenylpyridin-2-yl)amino)pyrrolidine-1-carbonitrile]	5.00 to 6.00
N#Cc1cc(-c2ccc(N3CCO[C@H]4CN(C#N)C[C@H]43)nn2)ccn1 (single isomer, unassigned) [Example 21, cis-4-(6-(2-Cyanopyridin-4-yl)pyridazin-3-yl)hexahydropyrrolo[3,4-b][1,4]oxazine-6(2H)-carbonitrile]	6.00 to 7.00
N#Cc1cc(-c2ccc(N3CCO[C@H]4CN(C#N)C[C@H]43)nc2)ccn1 (single isomer, unassigned) [Example 19, cis-4-(2′-Cyano-[3,4′-bipyridin]-6-yl)hexahydropyrrolo[3,4-b][1,4]oxazine-6(2H)-carbonitrile]	8.00 to 9.00
N#Cc1cc(-c2ccc(N3CCO[C@H]4CN(C#N)C[C@H]43)nn2)ccn1 (single isomer, unassigned) [Example 22, cis-4-(6-(2-Cyanopyridin-4-yl)pyridazin-3-yl)hexahydropyrrolo[3,4-b][1,4]oxazine-6(2H)-carbonitrile]	7.00 to 8.00
N#CN1C[C@@H]2OCCN(c3cc(-c4ccccc4)ccn3)[C@@H]2C1 (relative stereo) [Example 4, cis-4-(4-Phenylpyridin-2-yl)hexahydropyrrolo[3,4-b][1,4]oxazine-6(2H)-carbonitrile]	5.00 to 6.00
N#CN1C[C@@H]2OCCN(c3ccc(-c4ccccc4)cn3)[C@@H]2C1 (relative stereo) [Example 5, cis-4-(5-Phenylpyridin-2-yl)hexahydropyrrolo[3,4-b][1,4]oxazine-6(2H)-carbonitrile]	6.00 to 7.00
N#CN1C[C@@H]2OCCN(c3cccc(-c4ccccc4)n3)[C@@H]2C1 (relative stereo) [Example 6, cis-4-(6-Phenylpyridin-2-yl)hexahydropyrrolo[3,4-b][1,4]oxazine-6(2H)-carbonitrile]	6.00 to 7.00
N#CN1CC2CCN(c3ccccc3)C2C1 (centres unmarked) [Example 1, 1-Phenylhexahydropyrrolo[3,4-b]pyrrole-5(1H)-carbonitrile]	5.00 to 6.00
N#Cc1cc(-c2ccc(N3CCO[C@H]4CN(C#N)C[C@H]43)nc2)ccn1 (single isomer, unassigned) [Example 20, cis-4-(2′-Cyano-[3,4′-bipyridin]-6-yl)hexahydropyrrolo[3,4-b][1,4]oxazine-6(2H)-carbonitrile]	7.00 to 8.00
N#CN1C[C@H]2OCCN(c3ncc(-c4ccccc4)s3)[C@H]2C1 (relative stereo) [Example 9, cis-4-(5-Phenylthiazol-2-yl)hexahydropyrrolo[3,4-b][1,4]oxazine-6(2H)-carbonitrile]	6.00 to 7.00
N#Cc1cccc(-c2cccnc2N2CCO[C@H]3CN(C#N)C[C@H]32)c1 (racemic) [Example 23, rac-(4aR,7aS)-4-(5-(3-Cyanophenyl)pyridin-6-yl)hexahydropyrrolo[3,4-b][1,4]oxazine-6(2H)-carbonitrile]	8.00 to 9.00
N#Cc1ccc2nc(N3CC[C@@H]4CN(C#N)C[C@@H]43)[nH]c2c1 [Example 16, 2-((3aR,6aR)-5-Cyanohexahydropyrrolo[3,4-b]pyrrol-1(2H)-yl)-1H-benzo[d]imidazole-6-carbonitrile]	6.00 to 7.00
N#CN1C[C@H]2CCN(c3nc4ccc(OC(F)(F)F)cc4[nH]3)[C@H]2C1 [Example 15, (3aR,6aR)-1-(6-(Trifluoromethoxy)-1H-benzo[d]imidazol-2-yl)hexahydropyrrolo[3,4-b]pyrrole-5(1H)-carbonitrile]	7.00 to 8.00
N#Cc1cccc(-c2cnc(N3CCO[C@@H]4CN(C#N)C[C@@H]43)nc2)c1 (racemic) [Example 24, rac-(4aR,7aS)-4-(5-(3-Cyanophenyl)pyrimidin-2-yl)hexahydropyrrolo[3,4-b][1,4]oxazine-6(2H)-carbonitrile]	8.00 to 9.00
N#CN1C[C@@H]2OCCN(c3nc4ccc(F)cc4s3)[C@@H]2C1 (relative stereo) [Example 3, cis-4-(6-Fluorobenzo[d]thiazol-2-yl)hexahydropyrrolo[3,4-b][1,4]oxazine-6(2H)-carbonitrile]	5.00 to 6.00
COc1ccc2nc(N3CC[C@@H]4CN(C#N)C[C@@H]43)[nH]c2c1 [Example 17, (3aR,6aR)-1-(6-Methoxy-1H-benzo[d]imidazol-2-yl)hexahydropyrrolo[3,4-b]pyrrole-5(1H)-carbonitrile]	6.00 to 7.00

Now from value to compound:

pIC50	SMILES
6.00 to 7.00	CN(c1nc2ccc(C(F)(F)F)cc2[nH]1)[C@@H]1CCN(C#N)C1 [Example 18, (R)-3-(Methyl(6-(trifluoromethyl)-1H-benzo[d]imidazol-2-yl)amino)pyrrolidine-1-carbonitrile]
5.00 to 6.00	N#CN1CC2CCCN(c3ncc(-c4ccccc4)s3)C2C1 (centres unmarked) [Example 11, 1-(5-Phenylthiazol-2-yl)octahydro-6H-pyrrolo[3,4-b]pyridine-6-carbonitrile]
8.00 to 9.00	N#Cc1ccnc(-c2ccc(N3CCO[C@@H]4CN(C#N)C[C@@H]43)nc2)c1 (racemic) [Example 26, rac-(4aR,7aS)-4-(4-Cyano-[2,3′-bipyridin]-6′-yl)hexahydropyrrolo[3,4-b][1,4]oxazine-6(2H)-carbonitrile]
6.00 to 7.00	N#CN1C[C@H]2OCCN(c3ccc(-c4ccccc4)nn3)[C@H]2C1 (relative stereo) [Example 2, cis-4-(6-Phenylpyridazin-3-yl)hexahydropyrrolo[3,4-b][1,4]oxazine-6(2H)-carbonitrile]
6.00 to 7.00	N#CN1C[C@@H]2OCCN(c3nccc(-c4ccccc4)n3)[C@@H]2C1 (relative stereo) [Example 7, cis-4-(4-Phenylpyrimidin-2-yl)hexahydropyrrolo[3,4-b][1,4]oxazine-6(2H)-carbonitrile]
8.00 to 9.00	N#Cc1cccc(-c2cnc(N3CCO[C@@H]4CN(C#N)C[C@@H]43)cn2)c1 (racemic) [Example 25, rac-(4aR,7aS)-4-(5-(3-Cyanophenyl)pyrazin-2-yl)hexahydropyrrolo[3,4-b][1,4]oxazine-6(2H)-carbonitrile]
7.00 to 8.00	N#Cc1cccc(-c2ccc(N3CCO[C@@H]4CN(C#N)C[C@@H]43)nc2)n1 (racemic) [Example 27]
5.00 to 6.00	CN(c1ncc(-c2ccccc2)s1)C1CCN(C#N)C1 (centres unmarked) [Example 13, 3-(Methyl(5-phenylthiazol-2-yl)amino)pyrrolidine-1-carbonitrile]
6.00 to 7.00	N#CN1C[C@H]2CCN(c3ncc(-c4ccccc4)s3)[C@H]2C1 (relative stereo) [Example 8, cis-1-(5-Phenylthiazol-2-yl)hexahydropyrrolo[3,4-b]pyrrole-5(1H)-carbonitrile]
